Values of other authors, collected in patent US7501136B2, “Deodorant composition” (Kao Corporation, priority 2003, dated 2009).

Test system: Staphylococcus aureus
Conditions: against Staphylococcus aureus

SMILES: Cc1cc(O)ccc1C(C)C [isopropyl methylphenol]
- MIC (Minimum Inhibitory Concentration): 0.015%
